Our source for the TGI values is PubChem BioAssay (NCI).

Test systems include HCT-116 colon; NCI/ADR-RES ovarian; T-47D breast; SF-268 CNS; LOX IMVI melanoma; OVCAR-5 ovarian; UO-31 renal; NCI-H522 lung; DU-145 prostate; ACHN renal; SK-OV-3 ovarian.
Experiment in all cases: inhibition of tumour cell growth, NCI panel, 48 h

Each structure is given as a SMILES string.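 A five-concentration, 48-hour dose response in 96-well plates underlies each endpoint, interpolated linearly between surrounding concentrations. Definition used: TGI = concentration required for complete inhibition of growth.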

In the case of `Nc1ncnc2oc(C3OC(COC(=O)c4ccccc4)C(OC(=O)c4ccccc4)C3OC(=O)c3ccccc3)nc12` (configuration not stated), the TGI in the assay with HCT-116 colon, in the assay on NCI/ADR-RES ovarian, in the assay on T-47D breast, in the assay with SF-268 CNS, in the assay with LOX IMVI melanoma and in the assay on OVCAR-5 ovarian was greater than 100 µM in each case. For the same compound, the TGI in the assay on UO-31 renal is greater than 100 µM; with NCI-H522 lung it was greater than 100000 nM; with DU-145 prostate, greater than 100 µM; in the assay with ACHN renal it was greater than 100 µM; in the assay with SK-OV-3 ovarian, greater than 100 µM.
With `C=C1CC(c2ccc(OCCCN3C(=O)c4ccccc4C3=O)cc2)OC1=O` (configuration not stated), the TGI was 4.89 µM in the assay on HCT-116 colon; greater than 95.1 µM in the assay on NCI/ADR-RES ovarian; greater than 34.7 µM in the assay with T-47D breast; 15.4 µM in the assay on SF-268 CNS; 3.77 µM in the assay on LOX IMVI melanoma; 25.5 µM with OVCAR-5 ovarian. The TGI is 7.81 µM in the assay on UO-31 renal; 1830 nM in the assay on NCI-H522 lung; 16.3 µM with DU-145 prostate; 10.4 µM with ACHN renal; 27.5 µM in the assay with SK-OV-3 ovarian.
